Assay results reported in US4620014A, “2-furylbutyrolactones and methods for using same” (priority 1983, dated 1986).
Where “and” joins values, the source holds several entries; their conditions need not be identical. Equal values may be shown once. Read-outs that look alike come from different tables or passages of the source.

Assays:
[1] = test system: spleen lymphocytes of SJL/J mice
Experimental: (§1) The purpose of this assay is to challenge lymphocytes in microcultures with one or more polyclonal mitogens at concentrations that will induce mitogenesis within 72 hours of stimulation.
(§2) In the mouse model, spleens are removed from different strains of mice and the spleen cells are teased free and suspended in RPMI-1640 tissue culture medium at a concentration of usually 1×10^7 ml. These cells are dispensed at a concentration of 5.0×10^5 cells per microculture well in a 96 well flat bottom 96 well tissue culture plate. All testing of the compounds of this invention or mitogens are done in replicates of 10. The cells are then treated with PHA, Con-A, specific antigens, or buffer only. If in vitro testing is done, varying concentrations of the compounds of this invention or buffer only are added to the cells as well. After treatment with the mitogens and/or compounds of this invention, the cells are incubated for 72 hours. The response of these cells to mitogens and/or the compounds of this invention is assessed using ^14 C-thymidine labeling on the fourth day at a concentration of 0.01 μCi/well. The labeled cells are harvested using a lymphocyte harvestor and placed onto fibrous paper discs. A scintillation cocktail is added to vials contaning the discs and the results are obtained using a LKB-liquid scintillation counter (Model 1216/Rackbeta II). The data is expressed as a ratio of the cpm of the mitogen stimulated group to the control (non-mitogen) treated group=lymphocyte stimulation index (LSI).
(§3) The lymphocyte stimulation assay may be performed directly on spleen cells obtained from various strains of mice not treated with the compounds of this invention or on lymphocytes obtained from […]. […] Alternatively, the mice may be treated in vivo with the compounds of this invention by intraperitoneal multi-dose schedules, followed by sacrifice and harvesting spleen lymphocytes. These cells are then tested for their response to polyclonal mitogens or specific antigens used to immunize the mice. In this sytem however, no additional compound is added to the in vitro lymphocyte stimulation assay system.
Three month old mice of the SJL/J strain, which are T-cell deficient, are treated with i.p. administration of 100, 200, or 400 mg/kg of Cpd. 1 or just buffer for four days. This is followed by a lymphocyte stimulation assay.
An in vivo lymphocyte stimulation assay was performed on SJL/J mice of different ages, either 2, 5, or 10 months. The mice received i.p. injections of either 100 mg/kg of Cpd. 1 or just buffer.

[2] = test system: spleen lymphocytes from C57BL/6 mice; test: In vitro lymphocyte stimulation assay, C57BL/6 spleen lymphocytes; assay type: cell-based, mouse
Experimental: as §1, §2, §3
An in vitro lymphocyte stimulation assay is performed directly on normal spleen lymphocytes removed from five normal C57BL/6 mice, using concentrations of Cpd. […] Following three days of incubation the assay is completed.
An in vitro lymphocyte stimulation assay was performed using spleen lymphocytes from normal C57BL/6 mice. The lymphocytes were treated with either 1, 5, 10, 50, or 100 μg/well of Cpd. 1 or buffer.
Cpd. 2 was tested using normal spleen lymphocytes from C57BL/6 mice. A lymphocyte stimulation assay was conducted using either 1, 5, 10, 50, or 100 μg/well […] or just buffer.
Spleen cells from C57BL/6 mice were treated, in vitro, with the crystallizing reagents, succinic acid and succinimide. Since these compounds are spontaneously released from the molecular complex in solution at a molar ratio of 2 moles of Cpds. 1, 2, or 3 per mole of the crystalline reagent, these reagents were treated in the lymphocyte stimulation assay at proper molar concentrations.
The compound of example 3, Cpd. 3, was used to treat C57BL/6 spleen lymphocytes in vitro. The lymphocytes were treated with either 1, 5, 10, 50, or 100 μg/well of Cpd. 3 or just buffer and then a lymphocyte stimulation assay was performed.

[3] = Dissolution in bicarbonate buffered saline; assay type: physicochemical; conditions: 0.238 molar bicarbonate buffered saline (0.85%)
[4] = test system: antibody response to keyhole limpet hemocyanin (KLH)
Source text: The effect of the compounds of this invention on the immune response to specific antigens involves immunization of mice with specific anitgens such as bovine serum albumin (BSA) or keyhole limpet hemocyanin (KLH). Following immunization, it is possible to assess the cell-mediated or humoral (antibody) immune response to these antigens by various methods:
(2) Antibody response to soluble antigens such as BSA or KLH can be quantitated using a micro-ELISA solid phase heterogeneous immunoassay. The assay can be designed to quantitate class specific immunoglobulins (i.e., IgG or IgM).
The cut-off for the titer was the highest dilution of mouse serum yielding an O.D.≤0.1 when read on the MR-600 Dynatech micro-ELISA reader.
Mice of the C57BL/6 strain are given i.p. injections of either 50, 100, 200 or 400 mg/kg of Cpd. 1 or buffer for ten days (days 1-10). An antigen, keyhole limpet hemocyanin (KLH), is administered intraperitoneally with Freund's Complete Adjuvant (FCA) on days 1, 7, and 13. Blood samples are taken for assay of the antibody response on days 0, 5, 12, and 17. Spleens are removed, lymphocytes isolated and a lymphocyte stimulation assay with PHA, Con-A or KLH antigen as the mitogens is performed on day 17 of the experiment.

[5] = 100 mg/kg i.p., four days, three month old mice
[6] = 200 mg/kg i.p., four days, three month old mice
[7] = 400 mg/kg i.p., four days, three month old mice

SMILES: Cc1ccc(C2(O)C(=O)OC3C(O)COC32O)o1.Cc1ccc(C2(O)C(=O)OC3C(O)COC32O)o1.O=C1CCC(=O)O1 (stereo not drawn) [Cpd. 1]
- Lymphocyte Stimulation Index, Con-A ([1]; 100 mg/kg i.p., age 2 months): 167
- Lymphocyte Stimulation Index, Control (no mitogen) ([1]; 100 mg/kg i.p., age 2 months): 2.3
- Lymphocyte Stimulation Index, PHA ([1]; 100 mg/kg i.p., age 2 months): 32.6
- Lymphocyte Stimulation Index, Con-A ([1]; 100 mg/kg i.p., age 5 months): 12.9
- Lymphocyte Stimulation Index, Control (no mitogen) ([1]; 100 mg/kg i.p., age 5 months): 1.9
- Lymphocyte Stimulation Index, PHA ([1]; 100 mg/kg i.p., age 5 months): 1.16
- Lymphocyte Stimulation Index, Con-A ([1]; 100 mg/kg i.p., age 10 months): 14.5
- Lymphocyte Stimulation Index, Control (no mitogen) ([1]; 100 mg/kg i.p., age 10 months): 2.1
- Lymphocyte Stimulation Index, PHA ([1]; 100 mg/kg i.p., age 10 months): 9.18
- Lymphocyte Stimulation Index, Con-A [1, 5]: 5.01
- Lymphocyte Stimulation Index, Control (no mitogen) [1, 5]: 0.573
- Lymphocyte Stimulation Index, PHA [1, 5]: 1.85
- Con-A response ([1]; 100 mg/kg, 2 months of age): increased
- PHA response ([1]; 100 mg/kg, 2 months of age): decreased
- mitogenesis response to PHA and Con-A ([1]; 100 mg/kg, 5 months of age): depressed mitogenesis response
- PHA and Con-A mitogenic response ([1]; 100 mg/kg, ten month old): significant stimulation
- Lymphocyte Stimulation Index, Con-A [1, 6]: 4.57
- Lymphocyte Stimulation Index, Control (no mitogen) [1, 6]: 0.732
- Lymphocyte Stimulation Index, PHA [1, 6]: 1.79
- Lymphocyte Stimulation Index, Con-A [1, 7]: 3.30
- Lymphocyte Stimulation Index, Control (no mitogen) [1, 7]: 0.693
- Lymphocyte Stimulation Index, PHA [1, 7]: 2.31
- Lymphocyte Stimulation Index, Con-A ([2]; 1 μg/well in vitro): 178 and 123
- Lymphocyte Stimulation Index, PHA ([2]; 1 μg/well in vitro): 53.8 and 80.4
- Lymphocyte Stimulation Index, Con-A ([2]; 5 μg/well in vitro): 162
- Lymphocyte Stimulation Index, Control (no mitogen) ([2]; 5 μg/well in vitro): 1.8
- Lymphocyte Stimulation Index, PHA ([2]; 5 μg/well in vitro): 157
- mitogenesis, PHA and Con-A ([2]; 10 μg/well (Example 12)): significant suppression
- Lymphocyte Stimulation Index, Con-A ([2]; 50 μg/well in vitro): 3.78
- Lymphocyte Stimulation Index, Control (no mitogen) ([2]; 50 μg/well in vitro): .20
- Lymphocyte Stimulation Index, PHA ([2]; 50 μg/well in vitro): .261
- Lymphocyte Stimulation Index, Con-A ([2]; 100 μg/well in vitro): .308
- Lymphocyte Stimulation Index, Control (no mitogen) ([2]; 100 μg/well in vitro): .20
- Lymphocyte Stimulation Index, PHA ([2]; 100 μg/well in vitro): .292
- mitogenesis, PHA and Con-A ([2]; 0.001-1.0 μg/well): significant stimulation of mitogenesis
- response to PHA and Con-A ([2]; 5 and 10 μg/well): significant increases
- lymphocyte response to the mitogens ([2]; 50 and 100 μg/well): significant decreases
- Lymphocyte Stimulation Index, Con-A ([2]; .001 μg/well in vitro): 198
- Lymphocyte Stimulation Index, Control (no mitogen) ([2]; .001 μg/well in vitro): 3.8
- Lymphocyte Stimulation Index, PHA ([2]; .001 μg/well in vitro): 80.4
- Lymphocyte Stimulation Index, Con-A ([2]; .01 μg/well in vitro): 198
- Lymphocyte Stimulation Index, Control (no mitogen) ([2]; .01 μg/well in vitro): 3.2
- Lymphocyte Stimulation Index, PHA ([2]; .01 μg/well in vitro): 87.5
- Lymphocyte Stimulation Index, Con-A ([2]; .1 μg/well in vitro): 198
- Lymphocyte Stimulation Index, Control (no mitogen) ([2]; .1 μg/well in vitro): 3.2
- Lymphocyte Stimulation Index, PHA ([2]; .1 μg/well in vitro): 83.1
- dissolution [3]: dissolves completely
- Micro-ELISA Titer ([4]; 50 mg/kg i.p., day 5): N/R
- Micro-ELISA Titer ([4]; 50 mg/kg i.p., prebleed): N/R
- Micro-ELISA Titer ([4]; 100 mg/kg i.p., day 5): N/R
- Micro-ELISA Titer ([4]; 100 mg/kg i.p., prebleed): N/R
- Micro-ELISA Titer ([4]; 200 mg/kg i.p., day 5): N/R
- Micro-ELISA Titer ([4]; 200 mg/kg i.p., prebleed): N/R
- Micro-ELISA Titer ([4]; 400 mg/kg i.p., day 5): N/R
- Micro-ELISA Titer ([4]; 400 mg/kg i.p., prebleed): N/R
- stimulation of antibody response to KLH over control ([4]; 200 and 400 mg/kg, day 12): significant stimulation (four-fold increases)
- increase of antibody response to KLH over untreated antigen-sensitized controls ([4]; 200 and 400 mg/kg, day 17): eight-fold increase
